From the NIST ThermoML archive (doi:10.1021/je200508x)
± gives the expanded uncertainty stated by the source.

Test: molar heat capacity at constant pressure
Conditions: 101.33 kPa, Crystal, Vacuum adiabatic calorimetry

C=C(C)C(=O)[O][Sb]([O]C(=O)C(=C)C)([c]1ccccc1)([c]1ccccc1)[c]1ccccc1 [triphenyl-.lambda.5-stibanediyl bis(2-methylacrylate)]
Conditions	molar heat capacity at constant pressure [J/K/mol]
5 K	2.01 ± 0.05
5.69 K	2.9 ± 0.12
6.38 K	4.02 ± 0.17
7.1 K	5.41 ± 0.22
7.71 K	6.68 ± 0.27
8.27 K	7.96 ± 0.33
8.8 K	9.25 ± 0.38
9.02 K	9.78 ± 0.4
9.38 K	10.7 ± 0.4
9.91 K	12 ± 0.5
10 K	12.3 ± 0.1
10.45 K	13.4 ± 0.5
10.84 K	14.3 ± 0.6
11.3 K	15.5 ± 0.6
11.73 K	16.5 ± 0.7
12.1 K	17.4 ± 0.7
13.05 K	19.9 ± 0.8
13.67 K	21.6 ± 0.9
14.66 K	24.5 ± 1
15 K	25.4 ± 0.2
15.64 K	27.4 ± 0.31
16.62 K	30.16 ± 0.34
17.59 K	33.15 ± 0.37
18.52 K	36.15 ± 0.4
19.07 K	37.69 ± 0.41
19.58 K	39.2 ± 0.43
20 K	40.48 ± 0.24
21.68 K	45.73 ± 0.49
24.61 K	55.52 ± 0.59
25 K	56.85 ± 0.27
26.89 K	62.82 ± 0.66
28.78 K	68.55 ± 0.71
30 K	72.23 ± 0.19
31.21 K	75.9 ± 0.77
31.81 K	78.04 ± 0.8
33.66 K	83.66 ± 0.85
33.76 K	84.46 ± 0.86
35 K	88.24 ± 0.23
36.21 K	92.11 ± 0.94
38.67 K	99.54 ± 1
40 K	103.4 ± 0.3
41.14 K	106.6 ± 0.5
43.6 K	113.8 ± 0.5
45 K	117.5 ± 0.3
46.06 K	120.5 ± 0.5
48.52 K	127.2 ± 0.6
50 K	131.7 ± 0.3
50.62 K	133.3 ± 0.6
52.35 K	138.3 ± 0.6
56.62 K	149.3 ± 0.6
57.11 K	150.1 ± 0.6
59.23 K	155.6 ± 0.7
60 K	157.4 ± 0.4
61.69 K	161.4 ± 0.7
64.15 K	167.4 ± 0.7
66.61 K	173.5 ± 0.7
68.65 K	178.9 ± 0.8
70 K	181.9 ± 0.4
70.8 K	183.9 ± 0.8
73.27 K	189.7 ± 0.8
75.28 K	193.9 ± 0.8
77.44 K	199 ± 0.9
79.9 K	204.6 ± 0.9
80 K	204.8 ± 0.5
82.19 K	210 ± 0.9
84.03 K	214.2 ± 0.9
84.36 K	214.5 ± 0.9
86.03 K	217.9 ± 0.9
86.44 K	219.2 ± 0.9
88.12 K	222.6 ± 1
88.53 K	223.9 ± 1
90 K	226.3 ± 0.4
90.24 K	227.1 ± 1
90.62 K	227.4 ± 1
92.99 K	232 ± 1
95.37 K	236.4 ± 1
97.74 K	240.6 ± 1
100 K	245.1 ± 0.5
100.11 K	245.2 ± 1
102.48 K	250 ± 1.1
104.85 K	254 ± 1.1
107.22 K	258.4 ± 1.1
109.45 K	262.8 ± 1.1
110 K	263.4 ± 0.5
111.82 K	266.7 ± 1.1
114.3 K	271.1 ± 1.1
116.58 K	275.1 ± 1.2
118.96 K	279 ± 1.2
120 K	280.8 ± 0.5
121.34 K	283 ± 1.2
123.72 K	286.8 ± 1.2
126.1 K	290.5 ± 1.2
128.48 K	294.9 ± 1.2
130 K	297.4 ± 0.5
130.59 K	298.4 ± 1.2
132.7 K	302.2 ± 1.3
135.08 K	306.4 ± 1.3
139.6 K	313.7 ± 1.3
140 K	314.6 ± 0.5
141.3 K	316.8 ± 1.3
143.4 K	321 ± 1.3
145.22 K	324.6 ± 1.4
147.6 K	328.9 ± 1.4
149.99 K	333.6 ± 1.4
150 K	333.6 ± 0.5
152.36 K	347.2 ± 1.4
154.75 K	352.6 ± 1.5
157.14 K	362.4 ± 1.5
159.53 K	372.2 ± 1.5
160 K	372.6 ± 0.6
161.92 K	369.5 ± 1.5
164.34 K	355.3 ± 1.5
166.76 K	356.4 ± 1.5
169.15 K	360 ± 1.5
170 K	361.2 ± 0.6
171.6 K	363.4 ± 1.5
173.9 K	366.7 ± 1.5
175.85 K	369.5 ± 1.5
178.25 K	372.5 ± 1.5
180 K	375.2 ± 0.6
180.65 K	376.2 ± 1.6
183.05 K	379.6 ± 1.6
184.24 K	380.9 ± 1.6
187.35 K	385.8 ± 1.6
190 K	389.6 ± 0.6
190.9 K	391.1 ± 1.6
194.06 K	395.5 ± 1.6
197.17 K	400.2 ± 1.7
200 K	404.7 ± 0.6
200.73 K	406 ± 1.7
204.87 K	412.6 ± 1.7
209.58 K	420 ± 1.7
210 K	420.5 ± 0.6
214.29 K	427 ± 1.8
218.98 K	434.2 ± 1.8
220 K	436.3 ± 0.6
223.67 K	442.1 ± 1.8
228.35 K	449.1 ± 1.9
230 K	451.7 ± 0.7
232.58 K	456.1 ± 1.9
236.01 K	461 ± 1.9
240 K	466.6 ± 0.7
240.06 K	466.4 ± 1.9
244.71 K	473.3 ± 2
249.36 K	480 ± 2
250 K	481.2 ± 0.7
252.66 K	484.9 ± 2
256.66 K	491.7 ± 2
260 K	496.3 ± 0.7
261.29 K	497.9 ± 2.1
265.91 K	505.5 ± 2.1
270 K	511.1 ± 0.7
270.5 K	511.7 ± 2.1
275.08 K	518.7 ± 2.1
277.79 K	522.4 ± 2.2
280 K	525.9 ± 0.7
281.19 K	527.2 ± 2.2
284.56 K	532.8 ± 2.2
287.93 K	538.8 ± 2.2
290 K	541.9 ± 0.7
291.28 K	544 ± 2.2
294.6 K	550.2 ± 2.3
297.91 K	555.7 ± 2.3
298.15 K	555.9 ± 0.8
300 K	559.1 ± 0.8
301.2 K	561.8 ± 2.3
304.48 K	566.7 ± 2.3
307.74 K	572.1 ± 2.4
310 K	576.3 ± 0.8
310.99 K	577.4 ± 2.4
314.22 K	583.3 ± 2.4
317.43 K	588.2 ± 2.4
320 K	592 ± 0.8
320.63 K	592.8 ± 2.4
323.81 K	597.8 ± 2.5
327.25 K	602.8 ± 2.5
330 K	607 ± 1
330.43 K	607 ± 2.5
332.9 K	611.4 ± 2.5
334.78 K	614.7 ± 2.5
340 K	621 ± 1
350 K	635 ± 1
360 K	649 ± 1
370 K	664 ± 1
380 K	679 ± 1
390 K	694 ± 1
400 K	709 ± 1
